Reference: patent US20190134128A1, “METHOD FOR PRODUCING CELASTROL AND PENTACYCLIC TRITERPENE DERIVATIVES” (PIERRE FABRE DERMO-COSMETIQUE, priority 2016, published 2019)
Values after ≈ are worked out from the molar mass of the structure shown.

What was measured:
[1] = tested on: Propionibacterium acnes (CIP 53117T); assay: Antimicrobial activity (MIC/MBC, micro-method in liquid medium) against Propionibacterium acnes; type: cell-based; conditions: 24 h
Procedure: Activity is evaluated on Propionibacterium acnes (CIP 53117T), with an inoculation suspension at 10^8 CFU/mL. The maintenance medium is Columbia agar+5% sheep blood, with incubation for 24 hours at 36±1° C. under anaerobic conditions. The test medium is composed of Mueller Hinton broth+10% foetal calf serum (FCS) and Columbia agar+5% sheep blood, with incubation for 24 h at 36±1° C. under anaerobic conditions. The determination of minimum inhibitory concentrations (MICs) is performed by micro-method in liquid medium. 100 μL of liquid culture medium is deposited in each well of a sterile 96-well microplate. 100 μL of the product to be tested is deposited in the first well of a row. One-half dilutions are then made from wells 1 to 10. Propionibacterium acnes test suspensions are prepared extemporaneously in tryptone salt. 100 μL is deposited in each well of a second microplate, except column 11. All of the first microplate is inoculated, using a Denley multipoint inoculator, from the second microplate. After incubation, MICs are defined as the highest dilution with no visible growth. Columns 11 and 12 serve as negative and positive growth control, respectively. Two references were tested in parallel. The determination of minimum bactericidal concentrations (MBCs) is performed by subculturing MIC microplates on agar medium using the Denley multipoint inoculator. After incubation, MBC is defined as the highest dilution with no visible growth. All tests are performed in duplicate.

S. aureus CIP 4.83 = assay: Antimicrobial activity (MIC/MBC) against Staphylococcus aureus; type: cell-based
NFκB = assay: Inhibitory activity against NFκB in HaCaT keratinocytes stimulated with TNF-alpha; type: cell-based, human; conditions: 2 μM, TNF-alpha 0.3 ng/mL
Excerpt: The transcription factor NFκB controls the expression of a large number of genes involved in regulation of the inflammatory response. […] Certain pro-inflammatory stimuli such as TNF-alpha and IL-1-beta lead to the activation of NFκB, i.e. its nuclear translocation. Once in the nucleus, NFκB will induce the transcription of pro-inflammatory genes encoding cytokines, chemokines, adhesion molecules, growth factors and inducible enzymes.
The anti-inflammatory activities of the extracts obtained from the suspensions contained in Erlenmeyer flasks E1, E2, E3 and E6 of example 8 were evaluated in vitro on human HaCaT keratinocytes according to the method described by Albanesi et al. The extracts, weighed in dry weight, were taken up in a buffer and introduced into a HaCaT cell culture solution in equivalent final concentrations (ng/mL) for each extract and incubated for 1 hour. NFκB expression is then induced by stimulation with TNF-alpha (0.3 ng/mL).

[2] = Staphylococcus aureus, CIP4, 24 h
[3] = Propionibacterium acnes, anaerobic
[4] = S. aureus CIP 4.83, 36° C., 24 h

SMILES | MBC ([1]; Cutibacterium acnes) | MIC ([1]; Cutibacterium acnes) | MBC (S. aureus CIP 4.83; [2]) | MIC (S. aureus CIP 4.83; [2]) | MBC [1, 3] | MIC [1, 3] | MBC (S. aureus CIP 4.83; [4]) | MIC (S. aureus CIP 4.83; [4]) | % inhibition of NFκB expression with respect to induction of TNF-alpha (NFκB) | % inhibition of NFκB expression with respect to induction of TNF-alpha (NFκB; listed as Dex)
CC1=C(O)C(=O)C=C2C1=CC=C1[C@@]2(C)CC[C@@]2(C)[C@@H]3C[C@](C)(C(=O)O)CC[C@]3(C)CC[C@]12C [Celastrol, celastrol] | 1.17 µg/mL (≈ 2.6 µM) | 0.59 µg/mL (≈ 1.31 µM) | 0.59 µg/mL (≈ 1.31 µM) | 0.29 µg/mL (≈ 0.644 µM) | – | – | – | – | – | –
C[S+](C)[O-] [DMSO] | – | – | – | – | 5 µg/mL (≈ 64 µM) | 5 µg/mL (≈ 64 µM) | >5 µg/mL | >5 µg/mL | – | –
C[C@@H]1C[C@H]2[C@@H]3CCC4=CC(=O)C=C[C@]4(C)[C@@]3(F)[C@@H](O)C[C@]2(C)[C@@]1(O)C(=O)CO [Dexamethasone] | – | – | – | – | – | – | – | – | more than 40% | 42.5%
CC1=C(O)C(=O)C=C2C1=CC=C1[C@@]2(C)CC[C@@]2(C)C3C[C@@H](C)C(=O)C[C@]3(C)CC[C@]12C (stereo partly drawn) [Tingenin A, tingenin A] | 2.34 µg/mL (≈ 5.56 µM) | 2.34 µg/mL (≈ 5.56 µM) | 2.34 µg/mL (≈ 5.56 µM) | 1.17 to 2.34 µg/mL (≈ 2.78 to 5.56 µM) | – | – | – | – | – | –
CC1=C(O)C(=O)C=C2C1=CC=C1[C@@]2(C)CC[C@@]2(C)[C@@H]3C[C@@H](C)C(=O)[C@@H](O)[C@]3(C)CC[C@]12C [Tingenin B, tingenin B] | 1.17 µg/mL (≈ 2.68 µM) | 1.17 µg/mL (≈ 2.68 µM) | 1.17 µg/mL (≈ 2.68 µM) | 0.59 µg/mL (≈ 1.35 µM) | – | – | – | – | – | –
